Assay results published in patent US20100266674A1, “L-ODDC PRODRUGS FOR CANCER” (UNIVERSITY OF GEORGIA RESEARCH FOUNDATION, INC., priority 2006, published 2010).

Assays:
[1] = test system: SW1573 non-small cell lung cancer cell line; experiment: SRB chemosensitivity (cytotoxicity) assay, SW1573; assay type: cell-based; conditions: SRB test, 72 h incubation, mean of 3 experiments
Procedure: (§1) The compounds were evaluated on two non-small cell lung cancer cell lines (A549 and SW1573). These cell lines were characterized for deoxynucleoside analog sensitivity and activity of dCK previously.
(§2) The chemosensitivity assay used in this study was the sulforhodamineB (SRB) assay as described earlier (Keepers et al, Eur J. Cancer, 1991; Rubinstein et al, J. Natl. Cancer Inst., 1990). Cells were transferred to 96 wells plates on day 0; on day 1 a serial dilution of the drug was made from a stock solution and added to the cells in triplicate. After an incubation period of 72 h the cells were fixed for 1 hr at 4° C. with 50% trichloroacetic acid washed, air-dried and stained with 0.4% SRB. The optical density was measured at 492 nm with a microplate reader (Tecan, Salzburg, Austria).
(§3) The results were expressed as percentage of control growth: […]
(§4) The data were plotted in a graph to give a growth inhibition curve. From this growth inhibition curve the […] value was determined by interpolating at the 50% growth level. […] LogP was estimated using ChemDraw 8.0 ultra. IC50s are expressed as mean of 3 experiments.

[2] = test system: A549 non-small cell lung cancer cell line; experiment: SRB chemosensitivity (cytotoxicity) assay, A549; assay type: cell-based; conditions: SRB test, 72 h incubation, mean of 3 experiments
Procedure: as §1, §2, §3, §4

[3] = test system: Panc-02 pancreatic cancer cell line; experiment: SRB cytotoxicity assay, Panc-02; assay type: cell-based
Procedure: (§5) Sensitivity to four prodrugs with linear aliphatic chains of different length was determined by the SRB cytotoxicity assay^[12], the IC50 value of the drug was determined in the different cell lines by interpolating the growth inhibition curves. The tests were performed on the BxPC-3 and Panc-02 pancreatic cancer cell lines.

[4] = test system: BxPC-3 pancreatic cancer cell line; experiment: SRB cytotoxicity assay, BxPC-3; assay type: cell-based; conditions: BxPC-3 (BxPC3) pancreatic cancer cell line
Procedure: as §5

[5] = test system: A549; experiment: SRB assay with addition of dipyridamole (role of ENT transport), A549; assay type: cell-based; conditions: A549, dipyridamole added to the cells
Excerpt: These cell lines were chosen because they had been characterized earlier for sensitivity to gemcitabine and for the activity of the rate-limiting enzyme in the activation of gemcitabine and troxacitabine, deoxycytidine kinase (dCK); […] In addition, non-small cell lung cancer is routinely being treated with gemcitabine containing regimens. […] It should be noted that it is unlikely that they are being phosphorylated as prodrugs due to their steric hindrance. […] In a cell line we tested whether transport (ENT) would play a role by addition of dipyridamole to the cells. In A549 dipyridamole gave a 2-fold increase in the IC50, but this was not observed for the prodrugs. […] It is likely that these cycloalkyl and aromatic moieties at the N4 position of compounds 6l-t may render these compounds poor substrates of intracellular amidases. We therefore speculate that the amidase-catalyzed hydrolysis of the prodrugs may play an important role, allowing the release of troxacitabine into the intracellular compartment for activation (the triphosphate). The better activity profile of prodrugs 6h-k could have been the result of an increased uptake due to the high lipophilicity as well as of a high rate of amidase-catalyzed cleavage of the linear aliphatic derivatives intracellularly.

[6] = cited from earlier work

Row | Compound | IC50 ([1]; Homo sapiens, SW1573) [µM] | IC50 ([2]; Homo sapiens, A549) [µM] | further results
1 | CC(=O)Nc1ccn([C@@H]2CO[C@H](CO)O2)c(=O)n1 [Compound 6a, (−)-(2S,4S)-1-[2-(Hydroxymethyl)-1,3-dioxolan-4-yl]-4-N-acetyl-cytosine] | 10.7 | 6.87 | 
2 | CCCC(=O)Nc1ccn([C@@H]2CO[C@H](CO)O2)c(=O)n1 [Compound 6c, (−)-(2S,4S)-1-[2-(Hydroxymethyl)-1,3-dioxolan-4-yl]-4-N-butirryl-cytosine] |  |  | IC50 [1]: 8.07 µM; IC50 [2]: 6.6 µM
3 | CCCCC(=O)Nc1ccn([C@@H]2CO[C@H](CO)O2)c(=O)n1 [Compound 6e, (−)-(2S,4S)-1-[2-(Hydroxymethyl)-1,3-dioxolan-4-yl]-4-N-valeryl-cytosine] | 9.13 | 5.23 | 
4 | CCCCCCC(=O)Nc1ccn([C@@H]2CO[C@H](CO)O2)c(=O)n1 [Compound 6g, (−)-(2S,4S)-1-[2-(Hydroxymethyl)-1,3-dioxolan-4-yl]-4-N-heptanoyl-cytosine] | 2.4 | 1.04 | 
5 | CCCCCCCCC(=O)Nc1ccn([C@@H]2CO[C@H](CO)O2)c(=O)n1 [Compound 6h, (−)-(2S,4S)-1-[2-(Hydroxymethyl)-1,3-dioxolan-4-yl]-4-N-nonanoyl-cytosine] | 0.276 | 0.046 | 
6 | CCCCCCCCCC(=O)Nc1ccn([C@@H]2CO[C@H](CO)O2)c(=O)n1 [Compound 6i, (−)-(2S,4S)-1-[2-(Hydroxymethyl)-1,3-dioxolan-4-yl]-4-N-decanoyl-cytosine] | 0.04 | 0.024 | melting point: 141 to 143 °C; enhancement of sensitivity compared to troxacitabine [3]: 1400 fold
7 | CCCCCCCCCCCCNc1ccn([C@@H]2CO[C@H](CO)O2)c(=O)n1 [Compound 6j, (−)-(2S,4S)-1-[2-(Hydroxymethyl)-1,3-dioxolan-4-yl]-4-N-lauryl-cytosine] | 0.033 | 0.015 | decrease in IC50 / enhancement of sensitivity compared to troxacitabine [4]: 160 fold
8 | CCCCCCCCCCCCCCCC(=O)Nc1ccn([C@@H]2CO[C@H](CO)O2)c(=O)n1 [Compound 6k, (−)-(2S,4S)-1-[2-(Hydroxymethyl)-1,3-dioxolan-4-yl]-4-N-palmitoyl-cytosine] | 0.02 | 0.004 | 
9 | O=c1nc(NC2CC2)ccn1[C@@H]1CO[C@H](CO)O1 [Compound 6l, (−)-(2SAS)-1-[2-(Hydroxymethyl)-1,3-dioxolan-4-yl]-4-N-cyclopropyl-cytosine] |  |  | IC50 [1]: 22 µM; IC50 [2]: 18.7 µM
10 | O=c1nc(NC2CCCC2)ccn1[C@@H]1CO[C@H](CO)O1 [Compound 6m, (−)-(2S,4S)-1-[2-(Hydroxymethyl)-1,3-dioxolan-4-yl]-4-N-cyclopentyl-cytosine] | 8.8 | 2.97 | 
11 | O=c1nc(NC2CCCCC2)ccn1[C@@H]1CO[C@H](CO)O1 [Compound 6n, (−)-(2S,4S)-1-[2-(Hydroxymethyl)-1,3-dioxolan-4-yl]-4-N-cyclohexyl-cytosine] | 14 | 7.37 | 
12 | O=C(Nc1ccn([C@@H]2CO[C@H](CO)O2)c(=O)n1)c1ccccc1 [Compound 6o, (−)-(2S,4S)-1-[2-(Hydroxymethyl)-1,3-dioxolan-4-yl]-4-N-benzoyl-cytosine] | 13.7 | 8.53 | 
13 | O=C(Nc1ccn([C@@H]2CO[C@H](CO)O2)c(=O)n1)c1ccc(F)cc1 [Compound 6p, (−)-(2S,4S)-1-[2-(Hydroxymethyl)-1,3-dioxolan-4-yl]-4-N-(p-fluorobenzoyl)-cytosine] | 15.3 | 8.67 | 
14 | O=C(Nc1ccn([C@@H]2CO[C@H](CO)O2)c(=O)n1)c1ccc(Cl)cc1 [Compound 6q, (−)-(2S,4S)-1-[2-(Hydroxymethyl)-1,3-dioxolan-4-yl]-4-N-(p-chlorobenzoyl)-cytosine] | 2.77 | 0.41 | 
15 | O=C(Nc1ccn([C@@H]2CO[C@H](CO)O2)c(=O)n1)c1ccc(Br)cc1 [Compound 6r, (−)-(2S,4S)-1-[2-(Hydroxymethyl)-1,3-dioxolan-4-yl]-4-N-(p-bromobenzoyl)-cytosine] | 8.87 | 4.53 | 
16 | COc1ccc(C(=O)Nc2ccn([C@@H]3CO[C@H](CO)O3)c(=O)n2)cc1 [Compound 6s, (−)-(2S,4S)-1-[2-(Hydroxymethyl)-1,3-dioxolan-4-yl]-4-N-(p-methoxybenzoyl)-cytosine] | 10 | 3.5 | 
17 | O=C(Nc1ccn([C@@H]2CO[C@H](CO)O2)c(=O)n1)c1ccc(Cl)cc1Cl [Compound 6t, (−)-(2S,4S)-1-[2-(Hydroxymethyl)-1,3-dioxolan-4-yl]-4-N-(2,4-dichlorobenzoyl)-cytosine] | 14.3 | 9.83 | melting point: 185 to 187 °C
18 | Nc1ccn([C@@H]2O[C@H](CO)[C@@H](O)[C@@H]2O)c(=O)n1 [Cytarabine, reference compound] | 10.5 | 0.62 | 
19 | Nc1ccn([C@@H]2O[C@H](CO)[C@@H](O)C2(F)F)c(=O)n1 [Gemcitabine, reference compound] | 0.008 | 0.013 | 
20 | Nc1ccn([C@@H]2CO[C@H](CO)O2)c(=O)n1 [Troxacitabine, (−)-2′-deoxy-3′-oxacytidine, reference compound] | 2.3 | 0.68 | increase in the IC50 by dipyridamole [5]: 2 fold; plasma half-life [6]: 82 h
